The subject of assay [1] is HL60 promyelocytic leukemia cells. Put plainly: HL60 cell growth inhibition (MTT assay). The format is cell-based. The following applies: Homo sapiens, HL-60. How it is done:
(§1) These assays were performed as previously described using HL60 promyelocytic leukemia cells and Daudi Burkitt lymphoma cells, each of which expresses high levels of endogenous c-Myc (Wang, H. et al. Mol. Cancer Ther. 6, 2399-408 (2007)). As controls for non-specific effects of bivalent compounds, we utilized a c-Myc nulllizygous strain of rat fibroblasts (Mateyak, M. K., et al. Cell Growth & Differentiation 8, 1039-48 (1997)) expressing the c-Myc target genes MT-MC1 and HMGAIb, each of which restores a normal growth rate as well as the TGR1 fibroblast line from which the nullizygous line was derived (Wang, H. et al. Mol. Cancer Ther. 6, 2399-408 (2007); Mateyak, M. K., et al. Cell Growth & Differentiation 8, 1039-48 (1997); and Rothermund, K. et al. Cancer Research 65, 2097-107 (2005)). […] Cell quantification was performed on triplicate wells over the ensuing 4-5 days without changing the medium by measuring the absorbance at 490 nm using the MTT assay (Mosmann, T. Journal of Immunological Methods 65, 55-63 (1983)). IC50 values were estimated from linear regression of the inhibition data at the third day of each experiment.
(§2) We evaluated the efficacy of the linked compounds 11, 12, 13, 16, 17, 18 in inhibiting the c-Myc-Max interaction by measuring the binding of a target DNA sequence (E-Box) by the protein heterodimers in an electrophoretic mobility shift assay (EMSA). […] A fluorinated substitute of 14, 24, the choice of which was based upon the results of structure activity relationship studies described in Wang, H. et al. (Mol. Cancer Ther. 6, 2399-408 (2007)), was employed at this purpose (Muller, K., et al. Science 317, 1881-6 (2007) and Kirk, K. L. Current Topics in Medicinal Chemistry 6, 1447-56 (2006)).

Assay [2] relates to Daudi Burkitt lymphoma cells. The assay can be described thus: Burkitt's lymphoma cell growth inhibition (MTT assay). It is filed as cell-based. The conditions noted are these: Homo sapiens. As for the experimental part:
as §1, §2

In assay [3] the target is T1, c-Myc-Max heterodimer binding to E-Box DNA (Homo sapiens, UniProt P01106).
T1 construct: 6xHis with TEV site (N, cleaved yes); made in house; host or cells: c-Myc: E. coli BL21DE3(pLysS); Max: E. coli M15(pRep4)
Put plainly: Electrophoretic mobility shift assay (EMSA) of c-Myc-Max DNA binding. The format is biochemical. The conditions noted are these: c-Myc-Max dimer 1 μM, 10 nM E-Box DNA. As for the experimental part: FIG. 17. Inhibition of c-Myc-Max DNA binding measured by electrophoretic mobility shift assay (EMSA). a. Inhibition by bivalent compounds 11, 12, 13. b. Inhibition by bivalent compounds 16, 17, 18. c. Inhibition by monovalent compounds 10074-G5 (1) and 10058-F4 (2). Inhibitor concentrations are micromolar. The c-Myc-Max dimer concentration was 1 μM in a and b, 50 nM in c.
Reactions containing c-Myc353-437 and varying concentrations of each tested inhibitor in a buffer containing 1×PBS, 1 mM EDTA; 0.1% NP40; 5% Glycerol; 1 mM DTT; 0.4 mg/mL BSA were incubated for 30 minutes, followed by addition of pre-mixed p21 Max and a synthetic double-stranded oligonucleotide containing a consensus c-Myc-binding “E-Box” element (CACGTG). The final protein concentration was 1 μM for both c-Myc353-437 and p21 Max, 10 nM E-Box DNA. The binding reaction was then allowed to proceed for an additional 15 minutes before loading on an 8% running gel (80:1 poly acrylamide:bis-acrylamide). Control experiments with the monovalent parent inhibitors 1 and 2 were similarly performed using a lower (50 nM) concentration of each protein component. Gels were run at 20° C. in 0.5×TBE and scanned on a BioRad FX molecular imager. Data were analyzed with BioRad Quantity One software.
We evaluated the efficacy of the linked compounds 11, 12, 13, 16, 17, 18 in inhibiting the c-Myc-Max interaction by measuring the binding of a target DNA sequence (E-Box) by the protein heterodimers in an electrophoretic mobility shift assay (EMSA). […] Of these, the best was compound 16 (LINK N1), with an IC50 in the 0.5-1.0 μM in both of the above cell lines. In contrast, higher concentrations of the compounds were required to inhibit the growth of the non-transformed rat fibroblast line TGR1 or of TGR1-derived c-Myc null rat fibroblasts reconstituted with either of the c-Myc target genes HMGA1b or MT-MC1, which restore a normal growth rate. […] The lower, albeit promising, potency of the bivalent inhibitors in cell based assays compared to ones involving purified components, and the partial lack of correlation between the first and the latter, may reflect a generally poor cell permeability of these compounds, which are relatively bulky and display higher than optimal polar surface areas. The effects of the linker chain connectivity on the compounds conformation and shape may also affect their cell permeability in a different manner from what observed for their c-Myc binding affinity, resulting in the aforementioned incomplete correlation between their performance in cell based and purified components assays (FIG. 19). […]
In general terms: Mobility shift assays separate free from complexed probe on a gel.

[4] abbreviates: Table 3, MTT, third day, read-out: Growth inhibition HL60.
Setting [5] is: Table 3, MTT, third day, read-out: Growth inhibition BL.

The structures appear in SMILES notation. Like-named read-outs stand apart in the source and are kept apart here.

T1 sequence (P01106 368-452, one chain of several): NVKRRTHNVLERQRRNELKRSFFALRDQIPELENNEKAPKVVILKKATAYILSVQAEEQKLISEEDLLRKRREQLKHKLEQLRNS

Regarding `CCc1ccc(/C=C2\SC(=O)N(CCCCCCNC(=O)c3ccccc3Nc3ccc([N+](=O)[O-])c4nonc34)C2=O)cc1` [compound 16, N-{6-[(5Z)-5-[(4-ethylphenyl)methylidene]-2,4-dioxo-1,3-thiazolidin-3-yl]hexyl}-2-[(7-nitro-2,1,3-benzoxadiazol-4-yl)amino]benzamide amine], the IC50 in assay [1] (HL60 cells, read-out: IC50) fell in the range of 0.5 to 1 µM; in assay [1] (setting [4]) it was 0.5 to 0.7 µM; in assay [2] (BL cells, read-out: IC50) it was 0.5 to 1 µM; in assay [2] (setting [5]), 0.7 to 0.9 µM. In addition, the “Disruption of c-Myc-Max DNA (E-Box) binding” value (“Disruption of c-Myc-Max DNA” for short) in assay [3] is “Strong disruption of DNA binding”.

Consider `O=C1NC(=S)SC1=Cc1ccc(C(=O)NCCCCCNC(=O)c2ccc(Nc3ccc([N+](=O)[O-])c4nonc34)cc2)cc1` [compound 13], for which the IC50 in assay [1] (setting [4]) is 6 µM; in assay [2] (setting [5]), 5 to 10 µM. The “Disruption of c-Myc-Max DNA” value in assay [3] is on record as “Strong disruption of DNA binding”.

In the case of `CCc1ccc(C=C2SC(=O)N(CCCCCCNC(=O)c3cccc(Nc4ccc([N+](=O)[O-])c5nonc45)c3)C2=O)cc1` [compound 17], the IC50 in assay [1] (setting [4]) is greater than 30 µM; in assay [2] (setting [5]) it was greater than 10 µM. The “Disruption of c-Myc-Max DNA” value in assay [3] is “Strong disruption of DNA binding”.

As to `O=C1NC(=S)S/C1=C\c1ccc(C(=O)NCCCCCNC(=O)c2cccc(Nc3ccc([N+](=O)[O-])c4nonc34)c2)cc1` [compound 12, N-[5-({3-[(7-nitro-2,1,3-benzoxadiazol-4-yl)amino]phenyl}formamido)pentyl]-4-{[(5Z)-4-oxo-2-sulfanylidene-1,3-thiazolidin-5-ylidene]methyl}benzamide], the figures for the IC50 in assay [1] (setting [4]) and in assay [2] (setting [5]) were greater than 30 µM and 20 to 35 µM, respectively. In addition, the “Disruption of c-Myc-Max DNA” value in assay [3] is recorded as “Strong disruption of DNA binding”.

These data come from patent publication US8637556B2, “Linked Myc-max small molecule inhibitors” (University of Pittsburgh—Of the Commonwealth System of …, priority 2009, dated 2014).
